Reference: patent US20190388459A1, “NEW THERAPEUTIC USES” (ATLANTIC PHARMACEUTICALS (HOLDINGS) LTD, priority 2017, published 2019)
Marks after values point to notes of the source that are not given here.

How the values were obtained:
[1] = system: OVA-induced allergic asthma mouse model; assay: Ovalbumin-induced murine model of allergic asthma, BALF analysis; format: in vivo, Balb/c mice; details: Day 28, alicaforsen 1 mM IN 30 μl, dexamethasone 10 mg/kg IP, days 14, 25-27
Protocol: Allergic asthma was modeled in female BALB/c mice by initial sensitization to OVA followed by subsequent intranasal challenge of purified OVA.
Mice were monitored throughout the study for changes in body weight and general signs of sickness. Allergic response to OVA was measured by examining bronchoalveolar lavage fluid (BALF) for inflammatory cell influx and the presence of the inflammatory cytokine IL-13.
On days 0 and 14, each animal was administered an IP injection of 200 μL OVA/Alum emulsion containing 100 μg OVA.
On days 14 and 25-27, each animal was administered an intranasal challenge of 30 μL PBS containing 50 μg OVA.
Treatments were performed on the same days as OVA challenge on Study Days 14 and 25-27 (4 total treatments). Treatments were administered 1 hour following OVA challenge.
10 mg/kg dexamethasone was administered in 200 μL volume/animal (intraperitoneal) on Study Days 14 and 25-27 (4 total treatments).
Bonchoalveolar lavage was performed on euthanised animals. Briefly, an angiocatheter was placed into trachea. 1 mL of PBS was instilled into the lungs and allowed to flow back out into the syringe; the PBS was then instilled and removed again. The resultant Bronchoalveolar lavage fluid (BALF) was centrifuged at 500×g for 5 mins.
The non-cellular portion of the BALF was stored at −80° C. The levels of IL-13 were analyzed by Luminex technology.
The cellular portion of the BALF was used to analyze the cell influx. The total number of leukocytes within the BALF and different cell types present were examined via flow cytometry.
Granulocytes: CD45^+; Non-autofluorescent; Gr-1^+
Eosinophils: CD45^+; Non-autofluorescent; Gr-1^+; Siglec F^+

TLR9 [2] = target: T1, TLR9 (Homo sapiens, UniProt Q9NR96); assay: TLR-9 antagonist activity with E. coli genomic DNA as the activator; format: cell-based
T1 sequence (Q9NR96 26-1032): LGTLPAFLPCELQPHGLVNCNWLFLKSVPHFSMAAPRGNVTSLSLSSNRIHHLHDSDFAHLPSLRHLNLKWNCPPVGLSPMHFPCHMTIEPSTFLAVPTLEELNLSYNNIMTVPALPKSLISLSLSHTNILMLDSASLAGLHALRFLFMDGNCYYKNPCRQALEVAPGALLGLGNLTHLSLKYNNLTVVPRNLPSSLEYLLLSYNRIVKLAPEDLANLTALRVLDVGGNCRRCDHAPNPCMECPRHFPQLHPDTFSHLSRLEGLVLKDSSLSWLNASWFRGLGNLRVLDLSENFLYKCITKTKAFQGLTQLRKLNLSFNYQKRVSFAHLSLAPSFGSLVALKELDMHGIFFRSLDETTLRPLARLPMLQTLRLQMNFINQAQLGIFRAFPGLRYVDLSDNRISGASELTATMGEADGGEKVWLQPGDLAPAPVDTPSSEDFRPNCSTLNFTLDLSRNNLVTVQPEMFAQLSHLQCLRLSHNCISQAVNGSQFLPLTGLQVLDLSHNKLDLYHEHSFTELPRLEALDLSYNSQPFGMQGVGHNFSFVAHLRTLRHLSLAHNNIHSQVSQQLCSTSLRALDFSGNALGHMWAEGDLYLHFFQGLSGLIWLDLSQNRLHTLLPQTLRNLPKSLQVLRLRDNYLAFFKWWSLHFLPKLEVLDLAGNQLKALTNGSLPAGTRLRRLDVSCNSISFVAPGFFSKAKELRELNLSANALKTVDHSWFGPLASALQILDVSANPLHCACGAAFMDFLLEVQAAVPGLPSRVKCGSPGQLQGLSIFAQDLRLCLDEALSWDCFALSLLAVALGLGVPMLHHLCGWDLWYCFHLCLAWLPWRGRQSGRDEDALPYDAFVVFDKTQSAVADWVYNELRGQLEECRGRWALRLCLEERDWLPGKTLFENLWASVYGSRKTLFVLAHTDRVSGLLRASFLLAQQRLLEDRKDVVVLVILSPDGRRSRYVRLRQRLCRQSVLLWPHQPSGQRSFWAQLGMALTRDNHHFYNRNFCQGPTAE

TLR9 [3] = target: T1, TLR9; assay: Effect of heat, Na+, Mg++ and spermine pre-treatment on TLR-9 antagonist activity; format: cell-based; details: pre-treated with 5 mM spermine, heated to 90° C. and cooled; 1.0 uM ODN2006
Protocol: The samples and conditions of these tests are diagramed in FIG. 9.
One sample remained at room temperature while the remaining samples were heated to 90° C. for 3 min and then allowed to cool to room temperature. The samples were then diluted to the indicated concentrations and incubated with the target cells for 1 hr, prior to the addition of 1.0 uM ODN2006 to stimulate TLR-9.

dry eye murine model = assay: Scopolamine dry eye murine model, corneal fluorescein staining and clinical signs; format: in vivo, Mouse C57BL/6N; details: for Corneal fluorescein staining score (mean ± SD): one dose per day, topical both eyes
Protocol: In a model of mice, the application of transdermal scopolamine patches to the mid-tail is used to reduce aqueous tear production and thus mimic lacrimal gland insufficiency. The function of scopolamine is to induce a pharmacologic blockade of cholinergic receptors in the lacrimal gland and therefore to decrease aqueous production. The desiccation is amplified by adding environmental stress. Animals are exposed to a low-humidity environment and constant airflow.
Mice were treated with transdermal scopolamine administration (0.5 mg/72 h; Scopoderm TTS®). The transdermal scopolamine patch was wrapped near the tail base of the mouse, secured with cellophane tape. Patches were reapplied every 48 hours.
Mice were randomized into 4 groups of 10 animals. The study was divided into 2 experimental sets with 5 animals of each group represented.
All test items, control items and comparator item were instilled in both eyes (5 μL per administration), using a micropipette.
Tear production and corneal defects were assessed at baseline, on Days 3, 6 and 10 using phenol red thread (PRT) and corneal fluorescence staining (CFS), respectively, for each animal of the 4 groups.
Each day, the general clinical signs and the appearance of all animals was observed.
At the different time points the measurement was performed before administration on Day 3 and at least one hour after the second treatment for the other days of the study. The eyes of the animals from all groups were examined by slit-lamp observation using blue light after 0.5% fluorescein eye drop instillation (0.5 μL). Punctuate staining was recorded with the standardized National Eye Institute (NEI) grading system giving a 0-3 score to each of the 5 areas in which the corneas were divided.

[4] = Circular Dichroism spectroscopy, thermal stability of secondary structure; format: physicochemical
Description: SEQ ID NO: 1 was therefore subjected to Circular Dichroism (CD) spectroscopy to gather information about the possible secondary structure. CD of DNA can be utilized to detect all 3 major forms of duplex structure (B, A and Z) and is sensitive to conditions that disrupt the structure such a heating. Of interest was the stability of any secondary structure detected at or above physiologic temperatures.
Additional thermal denaturation of the putative duplex was also studied in the presence of Na^+ at concentrations of 50 mM and 150 mM. Sodium fluoride was used as Cl^− ions interfere with the CD spectra in this UV region.
Additional experiments were conducted to test the influence of Mg^++ and polyamines on the stability of the structure.

TLR9 [5] = target: T1, TLR9; assay: Inhibition of TLR9-mediated NF-kB induction activated by CpG ODN2006, luciferase reporter HEK 293 cell line; format: cell-based; parameters: host or cells: HEK 293 (TLR9/NF-kB luciferase reporter line)
Protocol: Briefly, the TLR9/NF-kB luciferase reporter HEK 293 cell line was plated in 96-well white solid plates at 5×10^4 cells per well for 16 h. […] Cells were then treated with 20 ug/ml of CpG ODN2006 to activate TLR9. After 16 h, luciferase activity was measured and analyzed.

TLR9 [6] = target: T1, TLR9; assay: TLR9 activation (agonist) screen, TLR9/NF-kB luciferase reporter HEK 293 cell line; format: cell-based; parameters: host or cells: HEK 293 (TLR9/NF-kB luciferase reporter line); details: up to concentrations as high as 100 uM
Protocol: […] Briefly, the TLR9/NF-kB luciferase reporter HEK 293 cell line (Abeomics, San Diego, Calif.) was plated in 96-well white solid plates at 5×10^4 cells per well for 16 h. […] Luciferase activity was then measured and analyzed.

## C[C@@H]1C[C@H]2[C@@H]3CCC4=CC(=O)C=C[C@]4(C)[C@@]3(F)[C@@H](O)C[C@]2(C)[C@@]1(O)C(=O)CO [Dexamethasone]
[1]
  BALF IL-13, Mean: 13.2** pg/ml
  Total CD45 cells in BALF, Mean: 236574
[1]; in % (unit assumed)
  Eosinophil (Frequency of CD45+) in BALF, Mean: 46.60**
  Granulocyte (Frequency of CD45+) in BALF, Mean: 51.88**

## alicaforsen (GCCCAAGCTGGCATCCGTCA; chemistry not given here; listed as Homo sapiens) [SEQ ID NO: 1]
TLR9 [2]
  antagonism of TLR-9 activation by E. coli genomic DNA: remained antagonistic to activation of TLR-9
TLR9 [3]
  TLR-9 inhibitory activity of spermine-treated samples: some activity is still observed
Dry eye murine model; 1 mM and 10 mM, topical ocular
  tolerability of multiple topical administrations: clinically well tolerated
Dry eye murine model; Day 6, 1 mM
  Corneal fluorescein staining score (mean ± SD): 10.5 ± 2.6
Dry eye murine model; Day 6, 10 mM
  Corneal fluorescein staining score (mean ± SD): 10.8 ± 2.0
Dry eye murine model; Day 10, 1 mM, listed as ALICAFORSEN
  Corneal fluorescein staining score (mean ± SD): 9.3 ± 3.1
Dry eye murine model; Day 10, 1 mM, listed as alicaforsen
  Corneal fluorescein staining score (mean ± SD): lower than the Vehicle group
Dry eye murine model; Day 10, 10 mM, listed as ALICAFORSEN
  Corneal fluorescein staining score (mean ± SD): 9.7 ± 2.2
Dry eye murine model; Day 10, 10 mM, listed as alicaforsen
  Corneal fluorescein staining score (mean ± SD): lower than the Vehicle group
[4]; 5 mM spermine in the presence of 50 mM Na+
  effect of spermine on secondary structure: completely abolished the secondary structure
[4]; 50 and 150 mM sodium, 40° C.
  structure retained (190 nm peak intensity): at least 50%
[4]; ddH20, heating to 80° C.
  loss of signal strength of 190 nm CD band: > 85%
TLR9 [5]; ODN2006 as activator
  TLR-9 antagonism: antagonist of TLR-9
TLR9 [5]; comparative dose responses, FIG. 3
  concentration needed for TLR-9 antagonism relative to inhibition of ICAM-1 expression: requires higher concentrations than the inhibition of ICAM-1 expression
TLR9 [6]
  agonist activity at TLR-9: devoid of agonist activity
